Data: the supplement of paper PMC10883282

Tests used:
SK-ES-1 [1] = test: relative viability vs DMSO control (72 h) (fraction); higher = more viable cells
Procedure, shortened: (§1)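 Serially diluted compound, 2.5 µl from source plates spanning 10 mM to 0.0002 mM, was added 24 h after sarcoma cell lines were seeded in 384-well plates at densities targeting 80–90% confluence. Plates then sat 72 h at 37 °C, 5% CO2, with 0.1% DMSO vehicle and a 5 µM positive control. Relative viability came from ATPLite as percent growth, averaged over up to triplicate wells, and was rescaled with 1 as full and 0 as none.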

VA-ES-BJ [2] = test: as above
Procedure, shortened: as §1

SW982 [3] = test: as above
Procedure, shortened: as §1

MES-SA [4] = test: as above
Procedure, shortened: as §1

A204 [5] = test: as above
Procedure, shortened: as §1

SYO-1 = test: standardised AUC of viability dose-response curve (72 h) (fraction (0-1)); higher = less growth inhibition (more resistant)
Procedure, shortened: (§2)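 Viability of sarcoma cell lines was read with ATPLite after 72 h of triplicate treatment in 384-well plates with 2.5 µl of compound from a compound-plate series of 10 mM to 0.0002 mM. Viability was scaled 1 (full) to 0 (none) and fitted with a four-parameter log-logistic model for each drug and cell line. The reported standardised area under the dose-response curve in log-dose space comes from a modified drexplorer computeAUC, where 1 is no response and 0 is full response.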

SW872 = test: as above
Procedure, shortened: as §2

SW1353 = test: as above
Procedure, shortened: as §2

SK-LMS-1 = test: as above
Procedure, shortened: as §2

KHOS-240S = test: as above
Procedure, shortened: as §2

HS729 = test: as above
Procedure, shortened: as §2

HT1080 = test: as above
Procedure, shortened: as §2

SW684 = test: as above
Procedure, shortened: as §2

SK-ES-1 [6] = test: as above
Procedure, shortened: as §2

VA-ES-BJ [7] = test: as above
Procedure, shortened: as §2

SW982 [8] = test: as above
Procedure, shortened: as §2

G401 = test: as above
Procedure, shortened: as §2

RD = test: as above
Procedure, shortened: as §2

MES-SA [9] = test: as above
Procedure, shortened: as §2

KHOS-NP = test: as above
Procedure, shortened: as §2

A204 [10] = test: as above
Procedure, shortened: as §2

RD-ES = test: as above
Procedure, shortened: as §2

CN(C)CCCOc1ccc(-c2ccc3ncc4c(c3c2)n(C2CCOCC2)c(=O)n4C)cn1 [AZD-0156]
relative viability
Details	A204 [5]	MES-SA [4]	SK-ES-1 [1]	SW982 [3]	VA-ES-BJ [2]
0.00017 µM	1.08	1.023	1.07	1.05	1.118
0.00051 µM	1.1	1.02	1.06	1.08	1.11
0.00152 µM	1.07	0.955	0.963	1.06	1.09
0.00457 µM	1.1	1.02	1	1.05	1.09
0.01372 µM	1.04	0.935	0.828	1.03	1.04
0.04115 µM	1.01	0.97	0.815	0.964	0.949
0.1235 µM	0.919	0.901	0.734	0.828	0.81
0.3704 µM	0.84	0.813	0.643	0.619	0.674
1.111 µM	0.704	0.716	0.59	0.484	0.462
3.333 µM	0.766	0.848	0.626	0.349	0.453
10 µM	0.628	0.654	0.522	0.218	0.348

Details	standardised AUC
A204 [10]	0.854
G401	0.963
HS729	0.883
HT1080	0.991
KHOS-240S	0.914
KHOS-NP	0.975
MES-SA [9]	0.887
RD	0.921
RD-ES	0.785
SK-ES-1 [6]	0.748
SK-LMS-1	0.858
SW684	0.891
SW872	0.749
SW982 [8]	0.752
SW1353	0.917
SYO-1	0.777
VA-ES-BJ [7]	0.753

COC(=O)c1ccc2c(c1)NC(=O)/C2=C(\Nc1ccc(N(C)C(=O)CN2CCN(C)CC2)cc1)c1ccccc1 [Nintedanib]
relative viability
Details	A204 [5]	MES-SA [4]	SK-ES-1 [1]	SW982 [3]	VA-ES-BJ [2]
0.00017 µM	1.04	0.933	1	0.999	1.04
0.00051 µM	1.04	0.93	0.951	0.996	1.06
0.00152 µM	1.02	0.942	0.945	1	1.04
0.00457 µM	0.997	0.928	0.961	0.994	1.06
0.01372 µM	0.831	0.898	1.03	0.975	1.05
0.04115 µM	0.566	0.944	1.03	0.965	1.045
0.1235 µM	0.434	0.934	0.986	1	1.05
0.3704 µM	0.392	0.958	0.883	0.961	1.03
1.111 µM	0.376	0.92	0.571	0.87	0.993
3.333 µM	0.318	0.804	0.399	0.823	0.994
10 µM	0.22	0.583	0.0168	0.0461	0.803
